Experimental data reported in the NIST ThermoML archive (doi:10.1021/je300557g).
± gives the expanded uncertainty stated by the source.

Tests used:
[1] = 101.33 kPa, Liquid; for viscosity: Capillary tube (Ostwald / Ubbelohde) method; for mass density: Vibrating tube method
[2] = xn = mol fraction of the nth substance listed; conditions: 101 kPa, Liquid; for mass density: Vibrating tube method

A viscosity ([1]; 293.15 K) of 220.54 ± 5.7 mPa·s, a mass density ([1]; 293.15 K) of 1217.11 ± 0.42 kg/m3 and a viscosity ([1]; 303.15 K) of 119.52 ± 2.1 mPa·s were found for `CCCC[n+]1ccccc1.F[B-](F)(F)F` [1-butylpyridinium tetrafluoroborate] in this work. For the same molecule, the mass density ([1]; 303.15 K) was 1210.83 ± 0.42 kg/m3, the viscosity ([1]; 313.15 K) was 71.11 ± 0.89 mPa·s and the mass density ([1]; 313.15 K) was 1203.72 ± 0.42 kg/m3. For the same molecule, the viscosity ([1]; 323.15 K) was 45.59 ± 0.54 mPa·s and the mass density ([1]; 323.15 K) was 1196.68 ± 0.41 kg/m3.

A viscosity ([1]; 293.15 K) of 284.62 ± 8.5 mPa·s, a mass density ([1]; 293.15 K) of 1185.92 ± 0.4 kg/m3 and a viscosity ([1]; 303.15 K) of 144.68 ± 2.9 mPa·s were found for `CCCC[n+]1ccc(C)cc1.F[B-](F)(F)F` [1-butyl-4-methylpyridinium tetrafluoroborate] in this work. It also gave a mass density ([1]; 303.15 K) of 1179.12 ± 0.4 kg/m3, a viscosity ([1]; 313.15 K) of 85.53 ± 1.2 mPa·s and a mass density ([1]; 313.15 K) of 1172.12 ± 0.39 kg/m3. The viscosity ([1]; 323.15 K) was 55.53 ± 0.63 mPa·s and the mass density ([1]; 323.15 K) was 1165.52 ± 0.39 kg/m3.

A viscosity ([1]; 293.15 K) of 246.62 ± 6.8 mPa·s, a mass density ([1]; 293.15 K) of 1185.66 ± 0.4 kg/m3 and a viscosity ([1]; 303.15 K) of 129.91 ± 2.4 mPa·s were found for `CCCC[n+]1cccc(C)c1.F[B-](F)(F)F` [1-butyl-3-methylpyridinium tetrafluoroborate] in this work. It also gave a mass density ([1]; 303.15 K) of 1178.86 ± 0.4 kg/m3, a viscosity ([1]; 313.15 K) of 76.46 ± 1 mPa·s and a mass density ([1]; 313.15 K) of 1172.11 ± 0.39 kg/m3. The viscosity ([1]; 323.15 K) was 48.18 ± 0.57 mPa·s and the mass density ([1]; 323.15 K) was 1165.37 ± 0.39 kg/m3.

A mass density ([2]; 303.15 K, x1 = 0.0482) of 843.38 ± 0.32 kg/m3, a mass density ([2]; 303.15 K, x1 = 0.0945) of 892.42 ± 0.29 kg/m3 and a mass density ([2]; 303.15 K, x1 = 0.1932) of 972.49 ± 0.27 kg/m3 were found for `CCCC[n+]1ccccc1.F[B-](F)(F)F` [1-butylpyridinium tetrafluoroborate] + CCO in this work. It also gave a mass density ([2]; 303.15 K, x1 = 0.2702) of 1019.05 ± 0.25 kg/m3, a mass density ([2]; 303.15 K, x1 = 0.3959) of 1076.24 ± 0.27 kg/m3 and a mass density ([2]; 303.15 K, x1 = 0.4954) of 1110.49 ± 0.28 kg/m3. The mass density ([2]; 303.15 K, x1 = 0.5999) was 1139.33 ± 0.31 kg/m3, the mass density ([2]; 303.15 K, x1 = 0.699) was 1161.67 ± 0.33 kg/m3 and the mass density ([2]; 303.15 K, x1 = 0.7963) was 1179.99 ± 0.36 kg/m3. It also gave a mass density ([2]; 303.15 K, x1 = 0.8477) of 1188.5 ± 0.37 kg/m3, a mass density ([2]; 303.15 K, x1 = 0.8984) of 1196.25 ± 0.39 kg/m3 and a mass density ([2]; 303.15 K, x1 = 0.9461) of 1203.06 ± 0.4 kg/m3. The kinematic viscosity ([2]; 303.15 K, x1 = 0.0482) was 1.42e-06 ± 2.1e-08 m2/s, the kinematic viscosity ([2]; 303.15 K, x1 = 0.0945) was 1.96e-06 ± 2.9e-08 m2/s and the kinematic viscosity ([2]; 303.15 K, x1 = 0.1932) was 3.17e-06 ± 4.6e-08 m2/s. It also gave a kinematic viscosity ([2]; 303.15 K, x1 = 0.2702) of 4.37e-06 ± 6.3e-08 m2/s, a kinematic viscosity ([2]; 303.15 K, x1 = 0.3959) of 7.13e-06 ± 9.9e-08 m2/s and a kinematic viscosity ([2]; 303.15 K, x1 = 0.4954) of 1.03e-05 ± 1.4e-07 m2/s. It also gave a kinematic viscosity ([2]; 303.15 K, x1 = 0.5999) of 1.57e-05 ± 2.1e-07 m2/s, a kinematic viscosity ([2]; 303.15 K, x1 = 0.699) of 2.36e-05 ± 3.2e-07 m2/s and a kinematic viscosity ([2]; 303.15 K, x1 = 0.7963) of 3.58e-05 ± 4.8e-07 m2/s. For the same molecule, the kinematic viscosity ([2]; 303.15 K, x1 = 0.8477) was 4.48e-05 ± 6e-07 m2/s, the kinematic viscosity ([2]; 303.15 K, x1 = 0.8984) was 5.83e-05 ± 7.1e-07 m2/s and the kinematic viscosity ([2]; 303.15 K, x1 = 0.9461) was 7.37e-05 ± 1.2e-06 m2/s. It also gave a mass density ([2]; 313.15 K, x1 = 0.0482) of 834.98 ± 0.32 kg/m3, a mass density ([2]; 313.15 K, x1 = 0.0945) of 884.28 ± 0.29 kg/m3 and a mass density ([2]; 313.15 K, x1 = 0.1932) of 964.73 ± 0.27 kg/m3. The mass density ([2]; 313.15 K, x1 = 0.2702) was 1011.49 ± 0.25 kg/m3, the mass density ([2]; 313.15 K, x1 = 0.3959) was 1068.89 ± 0.27 kg/m3 and the mass density ([2]; 313.15 K, x1 = 0.4954) was 1103.28 ± 0.28 kg/m3. It also gave a mass density ([2]; 313.15 K, x1 = 0.5999) of 1132.29 ± 0.31 kg/m3, a mass density ([2]; 313.15 K, x1 = 0.699) of 1154.79 ± 0.33 kg/m3 and a mass density ([2]; 313.15 K, x1 = 0.7963) of 1173.24 ± 0.36 kg/m3. The mass density ([2]; 313.15 K, x1 = 0.8477) was 1181.82 ± 0.37 kg/m3, the mass density ([2]; 313.15 K, x1 = 0.8984) was 1189.62 ± 0.38 kg/m3 and the mass density ([2]; 313.15 K, x1 = 0.9461) was 1196.46 ± 0.4 kg/m3. The kinematic viscosity ([2]; 313.15 K, x1 = 0.0482) was 1.29e-06 ± 1.9e-08 m2/s, the kinematic viscosity ([2]; 313.15 K, x1 = 0.0945) was 1.68e-06 ± 2.5e-08 m2/s and the kinematic viscosity ([2]; 313.15 K, x1 = 0.1932) was 2.57e-06 ± 3.8e-08 m2/s. It also gave a kinematic viscosity ([2]; 313.15 K, x1 = 0.2702) of 3.45e-06 ± 5e-08 m2/s, a kinematic viscosity ([2]; 313.15 K, x1 = 0.3959) of 5.43e-06 ± 7.8e-08 m2/s and a kinematic viscosity ([2]; 313.15 K, x1 = 0.4954) of 7.61e-06 ± 1.1e-07 m2/s. For the same molecule, the kinematic viscosity ([2]; 313.15 K, x1 = 0.5999) was 1.14e-05 ± 1.6e-07 m2/s, the kinematic viscosity ([2]; 313.15 K, x1 = 0.699) was 1.65e-05 ± 2.2e-07 m2/s and the kinematic viscosity ([2]; 313.15 K, x1 = 0.7963) was 2.41e-05 ± 3.2e-07 m2/s. The kinematic viscosity ([2]; 313.15 K, x1 = 0.8477) was 2.95e-05 ± 3.9e-07 m2/s, the kinematic viscosity ([2]; 313.15 K, x1 = 0.8984) was 3.73e-05 ± 5e-07 m2/s and the kinematic viscosity ([2]; 313.15 K, x1 = 0.9461) was 4.58e-05 ± 6.2e-07 m2/s. The mass density ([2]; 323.15 K, x1 = 0.0482) was 826.69 ± 0.32 kg/m3, the mass density ([2]; 323.15 K, x1 = 0.0945) was 876.45 ± 0.3 kg/m3 and the mass density ([2]; 323.15 K, x1 = 0.1932) was 957.44 ± 0.28 kg/m3. The mass density ([2]; 323.15 K, x1 = 0.2702) was 1004.32 ± 0.25 kg/m3, the mass density ([2]; 323.15 K, x1 = 0.3959) was 1061.7 ± 0.27 kg/m3 and the mass density ([2]; 323.15 K, x1 = 0.4954) was 1096.06 ± 0.28 kg/m3. The mass density ([2]; 323.15 K, x1 = 0.5999) was 1125.08 ± 0.3 kg/m3, the mass density ([2]; 323.15 K, x1 = 0.699) was 1147.65 ± 0.33 kg/m3 and the mass density ([2]; 323.15 K, x1 = 0.7963) was 1166.21 ± 0.35 kg/m3. For the same molecule, the mass density ([2]; 323.15 K, x1 = 0.8477) was 1174.82 ± 0.37 kg/m3, the mass density ([2]; 323.15 K, x1 = 0.8984) was 1182.65 ± 0.38 kg/m3 and the mass density ([2]; 323.15 K, x1 = 0.9461) was 1189.47 ± 0.39 kg/m3. It also gave a kinematic viscosity ([2]; 323.15 K, x1 = 0.0482) of 1.15e-06 ± 1.8e-08 m2/s, a kinematic viscosity ([2]; 323.15 K, x1 = 0.0945) of 1.41e-06 ± 2.1e-08 m2/s and a kinematic viscosity ([2]; 323.15 K, x1 = 0.1932) of 2.06e-06 ± 3.1e-08 m2/s. It also gave a kinematic viscosity ([2]; 323.15 K, x1 = 0.2702) of 2.73e-06 ± 4e-08 m2/s, a kinematic viscosity ([2]; 323.15 K, x1 = 0.3959) of 4.24e-06 ± 6.2e-08 m2/s and a kinematic viscosity ([2]; 323.15 K, x1 = 0.4954) of 5.94e-06 ± 8.5e-08 m2/s. It also gave a kinematic viscosity ([2]; 323.15 K, x1 = 0.5999) of 8.55e-06 ± 1.2e-07 m2/s, a kinematic viscosity ([2]; 323.15 K, x1 = 0.699) of 1.2e-05 ± 1.7e-07 m2/s and a kinematic viscosity ([2]; 323.15 K, x1 = 0.7963) of 1.7e-05 ± 2.3e-07 m2/s. The kinematic viscosity ([2]; 323.15 K, x1 = 0.8477) was 2.05e-05 ± 2.8e-07 m2/s, the kinematic viscosity ([2]; 323.15 K, x1 = 0.8984) was 2.53e-05 ± 3.4e-07 m2/s and the kinematic viscosity ([2]; 323.15 K, x1 = 0.9461) was 3.05e-05 ± 4.1e-07 m2/s.

A viscosity ([1]; 293.15 K) of 0.5833 ± 0.0069 mPa·s, a mass density ([1]; 293.15 K) of 791.24 ± 0.23 kg/m3 and a viscosity ([1]; 303.15 K) of 0.507 ± 0.006 mPa·s were found for `CO` [methanol] in this work. The mass density ([1]; 303.15 K) was 781.81 ± 0.23 kg/m3, the viscosity ([1]; 313.15 K) was 0.4438 ± 0.0053 mPa·s and the mass density ([1]; 313.15 K) was 772.29 ± 0.24 kg/m3. It also gave a viscosity ([1]; 323.15 K) of 0.3873 ± 0.0047 mPa·s and a mass density ([1]; 323.15 K) of 762.63 ± 0.24 kg/m3.

A viscosity ([1]; 293.15 K) of 1.18 ± 0.014 mPa·s, a mass density ([1]; 293.15 K) of 789.48 ± 0.24 kg/m3 and a viscosity ([1]; 303.15 K) of 0.981 ± 0.011 mPa·s were found for `CCO` [ethanol] in this work. For the same molecule, the mass density ([1]; 303.15 K) was 781.3 ± 0.24 kg/m3, the viscosity ([1]; 313.15 K) was 0.822 ± 0.0097 mPa·s and the mass density ([1]; 313.15 K) was 772.57 ± 0.24 kg/m3. The viscosity ([1]; 323.15 K) was 0.6939 ± 0.0083 mPa·s and the mass density ([1]; 323.15 K) was 763.65 ± 0.25 kg/m3.
